Results as given in ChEMBL document CHEMBL5649166, “RIP3 induces apoptosis independent of pronecrotic kinase activity” (Mol Cell, 2014).

What was measured:
[1] = biological target: T1, Activin receptor type-1 (Homo sapiens) (UniProt Q04771); experiment: Inhibition of human ALK2/ACVR1 using casein as substrate at 1 uM in presence of 32P-ATP by Hotspot assay relative to control; values are per cent of control
T1 sequence (whole entry): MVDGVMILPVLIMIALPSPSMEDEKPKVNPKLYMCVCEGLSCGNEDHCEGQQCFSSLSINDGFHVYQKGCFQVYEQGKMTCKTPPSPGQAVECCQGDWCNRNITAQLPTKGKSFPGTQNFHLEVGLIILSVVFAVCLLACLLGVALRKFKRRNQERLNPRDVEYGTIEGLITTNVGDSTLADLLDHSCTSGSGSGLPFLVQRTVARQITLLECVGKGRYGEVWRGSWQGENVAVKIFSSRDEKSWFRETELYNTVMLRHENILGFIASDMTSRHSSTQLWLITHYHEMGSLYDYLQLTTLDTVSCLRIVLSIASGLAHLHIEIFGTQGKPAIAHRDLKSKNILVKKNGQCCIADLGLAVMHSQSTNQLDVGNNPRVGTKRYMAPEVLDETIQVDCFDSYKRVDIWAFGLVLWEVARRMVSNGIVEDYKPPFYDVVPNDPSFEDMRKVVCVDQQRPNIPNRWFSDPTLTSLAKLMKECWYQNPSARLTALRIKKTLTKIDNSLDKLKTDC

[2] = biological target: PAS domain-containing serine/threonine-protein kinase (Homo sapiens) (UniProt Q96RG2); experiment: Inhibition of human PASK using KKLNRTLSFAEPG as substrate at 1 uM in presence of 32P-ATP by Hotspot assay relative to control; values are per cent of control
PAS domain-containing serine/threonine-protein kinase (Homo sapiens), sequence (Q96RG2 whole entry, the tested form may be a part): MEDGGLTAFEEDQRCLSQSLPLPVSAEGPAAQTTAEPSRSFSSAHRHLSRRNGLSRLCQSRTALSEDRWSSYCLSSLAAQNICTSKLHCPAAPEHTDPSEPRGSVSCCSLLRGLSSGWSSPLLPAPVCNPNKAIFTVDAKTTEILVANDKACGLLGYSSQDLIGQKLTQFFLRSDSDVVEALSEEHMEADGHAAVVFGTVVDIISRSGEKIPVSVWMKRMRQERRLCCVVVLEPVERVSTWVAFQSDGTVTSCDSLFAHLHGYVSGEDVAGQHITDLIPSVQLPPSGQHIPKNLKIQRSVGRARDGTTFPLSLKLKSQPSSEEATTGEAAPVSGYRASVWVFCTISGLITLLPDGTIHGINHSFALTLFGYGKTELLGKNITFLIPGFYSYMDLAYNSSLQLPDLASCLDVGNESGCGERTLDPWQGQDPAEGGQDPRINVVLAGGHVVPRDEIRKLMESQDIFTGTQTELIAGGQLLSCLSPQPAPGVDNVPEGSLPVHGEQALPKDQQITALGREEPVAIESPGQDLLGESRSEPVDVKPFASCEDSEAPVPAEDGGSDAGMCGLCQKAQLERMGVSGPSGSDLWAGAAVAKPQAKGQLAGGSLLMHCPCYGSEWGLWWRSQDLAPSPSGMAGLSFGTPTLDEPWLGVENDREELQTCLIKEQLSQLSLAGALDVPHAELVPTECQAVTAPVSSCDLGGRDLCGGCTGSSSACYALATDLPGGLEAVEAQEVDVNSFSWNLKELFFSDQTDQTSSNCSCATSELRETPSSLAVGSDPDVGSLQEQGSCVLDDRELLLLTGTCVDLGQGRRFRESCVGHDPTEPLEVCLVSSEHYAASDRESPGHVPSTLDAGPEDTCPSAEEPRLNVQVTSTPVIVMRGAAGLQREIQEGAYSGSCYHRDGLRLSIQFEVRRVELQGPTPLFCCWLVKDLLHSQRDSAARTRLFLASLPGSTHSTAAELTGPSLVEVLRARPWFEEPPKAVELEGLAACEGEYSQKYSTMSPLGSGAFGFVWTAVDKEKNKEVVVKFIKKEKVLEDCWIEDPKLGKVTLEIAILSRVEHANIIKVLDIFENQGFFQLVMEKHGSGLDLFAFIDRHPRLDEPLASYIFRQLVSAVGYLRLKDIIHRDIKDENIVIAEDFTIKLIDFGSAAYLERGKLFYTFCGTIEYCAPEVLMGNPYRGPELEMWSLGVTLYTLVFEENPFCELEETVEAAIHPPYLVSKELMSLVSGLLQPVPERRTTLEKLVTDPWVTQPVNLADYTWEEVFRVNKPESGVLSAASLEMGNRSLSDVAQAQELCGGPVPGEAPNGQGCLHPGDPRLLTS

[3] = biological target: T2, Serine/threonine-protein kinase DCLK2 (Homo sapiens) (UniProt Q8N568); experiment: Inhibition of human DCAMKL2 using KKLNRTLSFAEPG as substrate at 1 uM in presence of 32P-ATP by Hotspot assay relative to control; values are per cent of control
T2 sequence (whole entry): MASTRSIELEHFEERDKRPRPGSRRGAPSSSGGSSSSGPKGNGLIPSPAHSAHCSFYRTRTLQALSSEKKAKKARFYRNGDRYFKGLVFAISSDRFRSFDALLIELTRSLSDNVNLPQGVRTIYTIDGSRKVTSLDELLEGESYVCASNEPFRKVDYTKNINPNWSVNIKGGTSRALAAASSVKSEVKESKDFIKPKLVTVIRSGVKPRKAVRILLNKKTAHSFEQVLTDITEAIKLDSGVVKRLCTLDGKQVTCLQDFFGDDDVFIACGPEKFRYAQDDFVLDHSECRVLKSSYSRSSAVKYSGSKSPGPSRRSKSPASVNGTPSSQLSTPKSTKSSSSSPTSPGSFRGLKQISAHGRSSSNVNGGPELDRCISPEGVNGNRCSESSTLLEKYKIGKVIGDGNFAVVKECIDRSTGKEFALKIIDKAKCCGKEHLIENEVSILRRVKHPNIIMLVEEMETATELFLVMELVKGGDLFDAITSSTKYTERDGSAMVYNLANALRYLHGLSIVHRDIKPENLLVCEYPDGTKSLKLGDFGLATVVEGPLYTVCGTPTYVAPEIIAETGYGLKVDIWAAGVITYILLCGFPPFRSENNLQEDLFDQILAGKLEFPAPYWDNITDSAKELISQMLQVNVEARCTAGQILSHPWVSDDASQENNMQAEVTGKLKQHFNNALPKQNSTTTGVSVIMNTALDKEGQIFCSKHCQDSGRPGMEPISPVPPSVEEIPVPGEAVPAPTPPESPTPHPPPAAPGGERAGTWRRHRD

[4] = biological target: Tyrosine-protein kinase receptor UFO (Homo sapiens) (UniProt P30530); experiment: Inhibition of human AXL using poly[Glu:Tyr] (4:1) as substrate at 1 uM in presence of 32P-ATP by Hotspot assay relative to control; values are per cent of control
Tyrosine-protein kinase receptor UFO (Homo sapiens), sequence (P30530 whole entry): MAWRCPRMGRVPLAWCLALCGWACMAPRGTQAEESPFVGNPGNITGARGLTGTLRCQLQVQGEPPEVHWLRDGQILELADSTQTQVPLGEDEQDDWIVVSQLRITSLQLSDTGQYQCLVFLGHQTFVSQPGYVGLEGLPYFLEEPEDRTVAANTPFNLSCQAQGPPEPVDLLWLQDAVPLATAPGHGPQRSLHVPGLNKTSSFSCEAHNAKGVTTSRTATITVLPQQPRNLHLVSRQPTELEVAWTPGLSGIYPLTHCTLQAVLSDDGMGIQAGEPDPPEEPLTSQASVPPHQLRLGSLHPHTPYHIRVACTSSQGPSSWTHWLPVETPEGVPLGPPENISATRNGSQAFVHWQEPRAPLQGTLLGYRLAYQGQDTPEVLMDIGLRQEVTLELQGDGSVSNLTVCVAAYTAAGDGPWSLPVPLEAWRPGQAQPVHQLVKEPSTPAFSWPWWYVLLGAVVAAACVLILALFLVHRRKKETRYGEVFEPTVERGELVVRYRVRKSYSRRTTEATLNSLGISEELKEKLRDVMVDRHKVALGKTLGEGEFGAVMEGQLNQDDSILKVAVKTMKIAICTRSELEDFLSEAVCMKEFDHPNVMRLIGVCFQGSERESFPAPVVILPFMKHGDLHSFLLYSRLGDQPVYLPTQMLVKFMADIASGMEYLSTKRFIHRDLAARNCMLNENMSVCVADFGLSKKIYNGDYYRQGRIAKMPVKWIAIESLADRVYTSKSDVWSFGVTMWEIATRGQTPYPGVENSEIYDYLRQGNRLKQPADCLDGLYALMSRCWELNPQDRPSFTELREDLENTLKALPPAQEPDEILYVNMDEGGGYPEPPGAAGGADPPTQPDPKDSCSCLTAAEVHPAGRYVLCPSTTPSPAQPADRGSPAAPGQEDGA

[5] = biological target: Tyrosine-protein kinase Lyn (Homo sapiens) (UniProt P07948); experiment: Inhibition of human LYN B using poly[Glu:Tyr] (4:1) as substrate at 1 uM in presence of 32P-ATP by Hotspot assay relative to control; values are per cent of control
Tyrosine-protein kinase Lyn (Homo sapiens), sequence (P07948 2-512 limits assumed): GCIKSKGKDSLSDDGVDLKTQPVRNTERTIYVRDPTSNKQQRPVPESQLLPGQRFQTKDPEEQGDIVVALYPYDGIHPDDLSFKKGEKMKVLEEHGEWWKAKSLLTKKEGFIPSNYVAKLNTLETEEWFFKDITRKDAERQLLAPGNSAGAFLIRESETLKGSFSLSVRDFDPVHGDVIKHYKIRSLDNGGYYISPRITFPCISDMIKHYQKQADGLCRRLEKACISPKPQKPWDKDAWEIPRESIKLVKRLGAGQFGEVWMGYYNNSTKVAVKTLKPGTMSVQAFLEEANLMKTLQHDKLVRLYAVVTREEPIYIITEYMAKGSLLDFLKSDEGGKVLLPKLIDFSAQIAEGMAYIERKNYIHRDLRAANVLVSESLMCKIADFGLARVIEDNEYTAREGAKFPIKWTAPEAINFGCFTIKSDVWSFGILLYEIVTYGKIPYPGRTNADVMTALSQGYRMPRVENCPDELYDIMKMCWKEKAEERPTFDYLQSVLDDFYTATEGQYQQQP

[6] = biological target: T3, Muscle, skeletal receptor tyrosine-protein kinase (Homo sapiens) (UniProt O15146); experiment: Inhibition of human MUSK using myelin basic protein as substrate at 1 uM in presence of 32P-ATP by Hotspot assay relative to control; values are per cent of control
T3 sequence (whole entry): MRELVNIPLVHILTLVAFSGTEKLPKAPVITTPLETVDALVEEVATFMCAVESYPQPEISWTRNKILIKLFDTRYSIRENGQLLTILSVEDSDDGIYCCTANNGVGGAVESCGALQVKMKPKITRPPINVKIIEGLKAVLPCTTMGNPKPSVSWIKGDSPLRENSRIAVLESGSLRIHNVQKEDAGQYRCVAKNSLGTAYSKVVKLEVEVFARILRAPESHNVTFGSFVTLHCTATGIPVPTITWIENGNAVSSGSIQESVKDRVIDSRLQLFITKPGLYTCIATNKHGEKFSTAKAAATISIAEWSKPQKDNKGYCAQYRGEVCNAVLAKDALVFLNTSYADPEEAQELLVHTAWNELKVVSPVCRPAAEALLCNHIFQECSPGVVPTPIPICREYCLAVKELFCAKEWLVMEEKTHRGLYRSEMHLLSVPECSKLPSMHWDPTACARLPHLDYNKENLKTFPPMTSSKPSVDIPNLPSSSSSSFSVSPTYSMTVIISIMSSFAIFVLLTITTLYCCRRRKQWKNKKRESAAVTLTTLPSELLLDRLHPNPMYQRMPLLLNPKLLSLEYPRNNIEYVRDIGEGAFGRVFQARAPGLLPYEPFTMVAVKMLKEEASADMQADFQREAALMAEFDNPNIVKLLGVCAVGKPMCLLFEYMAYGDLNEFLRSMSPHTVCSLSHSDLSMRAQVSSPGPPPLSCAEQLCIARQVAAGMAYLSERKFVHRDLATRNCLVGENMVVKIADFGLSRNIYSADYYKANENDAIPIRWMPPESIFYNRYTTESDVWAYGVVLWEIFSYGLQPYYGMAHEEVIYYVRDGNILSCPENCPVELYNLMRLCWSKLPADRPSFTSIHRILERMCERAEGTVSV

Structure (SMILES)	residual activity [1] [%]	residual activity [2] [%]	residual activity [3] [%]	residual activity [4] [%]	residual activity [5] [%]	residual activity [6] [%]
Cc1cc(-c2cnc(N)c3c(-c4ccc5scnc5c4)csc23)n(C)n1	101	93.1	95.2	101	14	105
CNC(=O)c1ccc2c(c1)ncn2-c1ccc(CC(=O)OC(C)(C)C)cc1	80.4	99.8	98.6	92.6	89.2	103
CC(C)S(=O)(=O)c1ccc2nccc(Nc3ccc4scnc4c3)c2c1	102	96.5	99.4	101	74.6	98.1
